From US8048866B2, “Preventive and/or therapeutic agent for calcipenia” (Nippon Beet Sugar MFG., Co., Ltd., priority 2004, dated 2011)

Columns and labels:
Holstein cows = assay: Effect of supply of DFA III and DFA IV on calcium metabolism, lactation and urine excretion amount of cows; assay type: in vivo, cow; details: supplied feeds and 100 g of DFA; for Excretion amount of calcium in urine / Milk fat rate / Milk protein rate / Milk yield: main period of 5 days
Excerpt: The effect of supply of DFA III and DFA IV on calcium metabolism, lactation and a urine excretion amount of cows was examined.
Nine Holstein cows (2 to 4 calvings, 90 to 120 days after calving, average body weight 642 kg, average milk yield 36 kg) were divided into three groups, and subjected to a test by 3×3 Latin squares with one period of 15 days (preliminary period of 10 days and main period of 5 days).
Regarding supplied feeds for a day, a grass silage, a cone silage and a beat pulp were used in fixed amounts of 3, 4 and 2 kg in terms of a dry weight respectively, and an amount of a concentrate (crude protein content 18% TDN content 74%) was ⅓ the milk yield. Further, a mineral agent and a vitamin agent were not supplied, and an insufficient feed for each cow was supplemented by supplying hay. These supplied feeds have the same contents in all cows, and they were caused to freely drink water.
The foregoing supply only was applied to a control group Supplied feeds and 100 g of DFA III were applied to a DFA III group, and supplied feeds and 100 g of DFA IV were applied to a DFA IV group.
The cows were accommodated in a metabolism test laboratory, and milking was conducted twice at 5 o'clock and 17 o'clock. The milk yield was measured and milk composition were analyzed for five days as the main period. The total amount of feces and urine was recovered for five days as the main period, and the fixed amounts thereof were mixed and subjected to analysis.
As is apparent from the results, no great difference was found among the groups in the dry matter intake and the calcium intake. The milk yield was increased in the DFA III and DFA IV groups by approximately 1 kg in comparison to the control group. No difference was found either among the groups in the milk fat rate and the milk protein rate. […] In the table, TDN indicates a total amount of a digestible nutrient.

Holstein calving cows [1] = assay: Influence of DFA III and DFA IV on calcium concentration in blood in calving of cows (OCPC method); assay type: in vivo, cow; details: for Increase of calcium concentration in blood from immediately after calving: in 6 hours, 100 g orally
Experimental: The influence of DFA III and DFA IV on the calcium concentration in blood in calving of cows was examined.
(§1) As test cows, 15 Holstein calving cows with two or more calvings were used, and divided into three groups each consisting of 5 cows. Immediately after calving, the blood was sampled from the tail root. 300 ml of warm water was orally administered to the control group. 100 g of DFA III and 100 g of DFA IV each dissolved in 250 ml of warm water were orally administered to the DFA III group and the DFA IV group respectively. The blood was sampled from the tail root after 6 hours and 60 hours from the blood sampling immediately after calving. The degree of the udder edema was also confirmed by palpation.
Regarding the feeds supplied after calving, the cows were caused to freely take 20 kg/day of TMR containing a grass silage, a corn silage and a concentrate (hereinafter referred to as a mixed feed: forage rate 47.8%), 4 kg of a concentrate and hay. Conditions of calculating the requirement are as follow: day after calving—3, 2 calvings, body weight—612 kg, milk yield—20 kg, milk fat rate—4.0%, and milk protein rate—3.2%. NEl indicates a net energy of lactation, and efNDF indicates an effective neutral detergent insoluble fiber.
(§2) The blood was centrifuged at 3,000 rpm for 10 minutes, and the serum portion was stored at −30° C. until analysis. Calcium was analyzed by the OCPC method. The degree of udder was examined by palpation. A heavy degree was defined as 4, a medium degree as 3, a light degree as 2 and a normal degree as 1 respectively.

Holstein calving cows [2] = assay: Degree of udder edema by palpation after oral administration of DFA III and DFA IV; assay type: in vivo, cow; details: time 0, before administration; heavy 4, medium 3, light 2, normal 1
Experimental: as §1, §2

Holstein calving cows [3] = assay: Effect of DFA III and calcium and vitamin D on calcium concentration in blood at the time of calving of cows; assay type: in vivo, cow
Experimental: The effect of DFA III and calcium and vitamin D on the calcium concentration in blood at the time of calving of cows was examined.
As test cows, 15 Holstein calving cows with 2 or more calvings were used, and divided into three groups each consisting of 5 cows. Immediately after calving, the blood was sampled from the tall root. 100 g of DFA III dissolved in 250 ml of warm water was orally administered to the DFA III group. DFA III and calcium carbonate in amounts of 100 g each which were dissolved in 200 ml of warm water were orally administered to the DFA III+Ca group. DFA III and calcium carbonate in amounts of 100 a each and 10,000 IU of vitamin D which were dissolved in 200 ml of warm water were orally administered to the DFA III+Ca+VD group. The blood was sampled from the tail root after 6, 24 and 70 hours from the blood sampling immediately after calving.
The supply of the feeds and the analyses of the calcium concentration in blood were conducted in the same manner as in Example 3.

[4] = system: cows with 2 or more calvings; assay: Influence of DFA III supply at a dry period on calcium concentration in blood of cows after calving; assay type: in vivo, cow
Experimental: The influence of the DFA III supply at a dry period on the calcium concentration in blood of cows after calving was tested in vivo using actual cows.
It has been so far considered that DFA III is administered to cows after caving which is effective for improving the calcium concentration in blood. On the other hand, the calcium concentration in blood is already decreased immediately after calving. As the decree of decrease is greater, vitality and appetite are weak and tend to be slowly recovered. Accordingly, DFA III was supplied at a dry period, and the influence of DFA III on the calcium concentration in blood immediately after calving was examined.
DFA III supply; DFA III (50 g/day) was supplied at a dry period from 3 weeks before an expected date of calving through calving.
Without DFA III supply; DFA III was not supplied before calving.
90 g of DFA III was, each time, supplied to both of the DFA III supply group and the group without DFA supply 0 hour and 6 hours after calving. At a dry period, 4 kg/day of a feed obtained by adding 12,000 IU of vitamin D to 4 kg of a feed was supplied to both the areas.
Cows with 2 or more calvings were used.
As DFA III supply cows, 10 cows which experienced calving after Apr. 30, 2004 were subjected to a test. As cows without DFA III supply, 38 cows which experienced calving from Jul. 14, 2002 through Apr. 18, 2004 and to which DFA III was not supplied at a dry period were used. Since the test started on Jul. 14, 2002, the test cows include 15 cows which experienced calving twice (8 DFA III supply cows and 7 cows without DFA III supply) during this period.
In dry cows, milking was stopped 2 months before an expected date of calving. Then, a concentrate (crude protein content 18%, TDN 72%, Ca 0.9% P 0.5%) was supplied in an amount of 2 kg/day until 3 weeks before an expected date of calving. A concentrate (crude protein content 20%, TDN 75%, Ca 0.2%, P 0.5%) was supplied in an amount of 4 kg/day from 3 weeks before an expected date of calving through calving. As another feed, the cows were caused to freely take hay (crude protein content from 6 to 8%, TDN from 45 to 55%, Ca from 0.2 to 0.3%, P 0.2%) during the entire dry period. A mixture obtained by adding 50 g of DFA III to 4 kg of the concentrate given 3 weeks before an expected date of calving was supplied to the DFA III supply cows. As the feeds supplied after calving, the cows were caused to freely take 20 kg/day of TMR containing a grass silage a corn silage and a concentrate (crude feed rate 47.8%), 4 kg of a concentrate (crude protein content 18%, TDN 72%, Ca 0.9%, P 0.5%) and hay.
In all cows, the blood was sampled from the tail root immediately after calving. Further, the blood sampling was performed from the same tail root after 6 hours, 24 hours and 72 hours from the blood sampling immediately after confinement (0 hour). In 0 hour and 6 hours for blood sampling, 90 g of DFA III, 100 g of calcium carbonate and 10,000 IU of vitamin D dissolved in warm water were orally administered each time.
The blood was centrifuged at 3,000 rpm for 10 minutes, and the serum portion was stored at −30° C. until analysis. The calcium concentration was measured by the OCPC method.

mice = assay: Acute toxicity test for 10 days using mice; assay type: in vivo; details: oral administration, 1,000 mg/kg
Excerpt: The dose of DFA III is not particularly limited to the foregoing range. When it is ingested over a long period of time for preservation of the health or for maintenance of the health, the dose may be lower than the foregoing range.

rumen microorganisms = assay: Degradability of DFA III and DFA IV in the rumen (incubation with rumen liquid inoculum); assay type: in vitro ADME, Holstein steer and cow; details: 400 mg/dl in culture solution, 39° C., 0 to 24 hours
Excerpt: In ruminants, for DFA III and DFA IV to accelerate calcium absorption, they have to reach intestines by avoiding degradation thereof in the rumen with microorganisms. Accordingly, degradability of DFA III and DFA IV in the rumen was examined.
A rumen liquid was collected from each of a rumen cannula-fitted Holstein steer to which 4 kg of a concentrate was supplied in consideration of controlling nutrition of a dry cow and which was caused to freely take hay and a cow in which a milk yield was 30 kg and a rate of a concentrate in a supplied feed was 55%. The liquid was filtered through a four-fold gauze to form an inoculum.
As a buffer, a 0.25 M phosphate buffer (KH2PO4 6.8045 g+Na2HPO4.12H2O 26.8605 g/500 ml, pH 7.0) was used, and 1 g of DFA III or DFA IV per 100 ml of this buffer was added.
30 ml of the inoculum and 20 ml of the buffer were added to a 200-ml conical flask. […] In 0, 1, 2, 4, 8, 12 and 24 hours of the culturing, the culture solution was collected from the flask, and analyzed.
The culture solution in the flask was stirred. After 20 ml of the culture solution was collected, 0.1 ml of sulfosalicylic acid (20% solution was added for deproteinization. After centrifugation by 8,000 rotations for 10 minutes, the solution was filtered with a filter paper of 0.45 μm, and DFA III and DFA IV were analyzed by liquid chromatography. […]

[5] = 6 hours after first blood sampling, 100 g orally immediately after calving
[6] = time 0: blood sampling immediately after calving, before oral administration of 100 g

Row | Structure (SMILES) | Increase of milk yield in comparison to the control group (Holstein cows) | Excretion amount of calcium in urine (Holstein cows) [g/day] | Milk fat rate (Holstein cows) [%] | Milk protein rate (Holstein cows) [%] | Milk yield (Holstein cows) [kg/day] | Calcium concentration in blood (Holstein calving cows [1]; [5]) [mg/dL] | Increase of calcium concentration in blood from immediately after calving (Holstein calving cows [1]) | Calcium concentration in blood (Holstein calving cows [1]; [6]) [mg/dL] | Degree of udder edema (Holstein calving cows [2]) | also measured
1 | OC[C@H]1O[C@@]2(CO[C@]3(CO)O[C@H](CO)[C@@H](O)[C@@H]3O2)[C@@H](O)[C@@H]1O [DFA III, di-D-fructfuranose-1,2;2,3′ dianhydride] | approximately 1 kg | 4.2 | 3.86 | 3.15 | 35.6 | 8.3 | approximately 1 mg/dl | 7.3 | 3.3 | Calcium concentration in blood (Holstein calving cows [1]; 60 hours after first blood sampling, 100 g orally immediately after calving): 8.0 mg/dL; Calcium concentration in blood (Holstein calving cows [3]; 6 hours after first blood sampling, oral administration immediately after calving): 7.9 mg/dL; Calcium concentration in blood (Holstein calving cows [3]; 70 hours after first blood sampling, oral administration immediately after calving): 8.5 mg/dL; Increase of calcium concentration in blood in comparison to that immediately after calving (Holstein calving cows [3]; in 6 hours): 1.2 mg/dL; Calcium concentration in blood (Holstein calving cows [3]; time 0: immediately after calving, before oral administration): 6.7 mg/dL; Calcium concentration in blood immediately after calving according to the parity ([4]; 10 DFA III supply cows, DFA III at dry period): not decreased by increasing the parity; Change in calcium concentration in blood after calving (0 to 72 hours) ([4]; Yes-Present calving, 8 cows, DFA III at dry period): shifted at a higher level than in the previous calving; Time for calcium concentration in blood to reach the normal value (9 to 11 mg/dl) ([4]; after calving, DFA III supplied at a dry period, 90 g DFA III, calcium carbonate and vitamin D at 0 and 6 hours): approximately 6 hours; Increase of calcium concentration in blood immediately after calving in comparison to the previous calving ([4]; present calving with DFA III 50 g/day at dry period vs previous calving without): 1.0 mg/dL; Calcium concentration in blood immediately after calving (average) ([4]; present calving, DFA III 50 g/day at a dry period from 3 weeks before expected date of calving): 8.1 mg/dL; Calcium concentration in blood immediately after calving, individual cows ([4]; present calving, DFA III supply at dry period): ≥ 7 mg/dL; Death in acute toxicity test (mice): no death example was observed
2 | OCC12OCC3OC(CO)(OCC(O1)C(O)C2O)C(O)C3O [DFA IV, di-D-fructfuranose-2,6:6.2′ dianhydride] | approximately 1 kg | 4.0 | 3.92 | 3.11 | 35.2 | 8.0 | approximately 1 mg/dl | 7.1 | 3.1 | Degradation in rumen culture solution (rumen microorganisms; any of the inoculums): not degraded; Amount recovered in each incubation time (rumen microorganisms; liquid chromatography): approximately the total amounts thereof were recovered
